From patent US20260224584A1 (priority 2023, published 2026)
Where a name gives a salt, the structure may show the parent alone.

test system: Human WB (90%) CD69; assay: Human WB (90%) CD69; format: cell-based; conditions: read-out: Human WB (90%) CD69 IC50 (nM); human whole blood (90%), CD69 readout

| Compound | IC50 |
| --- | --- |
| CC(C)N1CCN(c2ccc(-c3cc(N4CCN(C(C)C)CC4)c4nc(-c5ccc(S(C)(=O)=O)cc5)n(C)c4c3)cc2)CC1 [Example 1, 4-(4-isopropylpiperazin-1-yl)-6-(4-(4-isopropylpiperazin-1-yl)phenyl)-1-methyl-2-(4-(methylsulfonyl)phenyl)-1H-benzo[d]imidazole] | 77 nM |
| CC(C)N1CCN(c2ccc(-c3cc(N(C)CCN(C)C)c4nc(-c5ccc(S(C)(=O)=O)cc5)n(C)c4c3)cc2)CC1 [Example 2, N1-(6-(4-(4-isopropylpiperazin-1-yl)phenyl)-1-methyl-2-(4-(methylsulfonyl)phenyl)-1H-benzo[d]imidazol-4-yl)-N^1,N^2,N^2-trimethylethane-1,2-diamine] | 199 nM |
| CC(C)N1CCN(c2ccc(-c3cc(NCCN4CCCC4)c4nc(-c5ccc(S(C)(=O)=O)cc5)n(C)c4c3)cc2)CC1 [Example 3, 6-(4-(4-isopropylpiperazin-1-yl)phenyl)-1-methyl-2-(4-(methylsulfonyl)phenyl)-N-(2-(pyrrolidin-1-yl)ethyl)-1H-benzo[d]imidazol-4-amine] | 87 nM |
| Cc1nc2c(NCCN3CCOCC3)cc(-c3ccc(N4CCN(C(C)C)CC4)cc3)cc2n1C [Example 4, 6-(4-(4-isopropylpiperazin-1-yl)phenyl)-1,2-dimethyl-N-(2-morpholinoethyl)-1H-benzo[d]imidazol-4-amine] | 106 nM |
| COc1ccc(-c2nc3c(NCCN4CCOCC4)cc(-c4ccc(N5CCN(C(C)C)CC5)cc4)cc3n2C)cc1OC [Example 5, 2-(3,4-dimethoxyphenyl)-6-(4-(4-isopropylpiperazin-1-yl)phenyl)-1-methyl-N-(2-morpholinoethyl)-1H-benzo[d]imidazol-4-amine] | 94 nM |
| Cc1cc(C)nc(Nc2cc(-c3ccc(N4CCN(C(C)C)CC4)cc3)cc3c2nc(C)n3C)c1 [Example 6, N-(4,6-dimethylpyridin-2-yl)-6-(4-(4-isopropylpiperazin-1-yl)phenyl)-1,2-dimethyl-1H-benzo[d]imidazol-4-amine] | 25 nM |
| Cc1nc2c(NCCN3CCC(F)(F)CC3)cc(-c3ccc(N4CCN(C(C)C)CC4)cc3)cc2n1C [Example 7, N-(2-(4,4-difluoropiperidin-1-yl)ethyl)-6-(4-(4-isopropylpiperazin-1-yl)phenyl)-1,2-dimethyl-1H-benzo[d]imidazol-4-amine] | 923 nM |
| COc1cccc(CCNc2cc(-c3ccc(N4CCN(C(C)C)CC4)cc3)cc3c2nc(C)n3C)c1OC [Example 8, N-(2,3-dimethoxyphenethyl)-6-(4-(4-isopropylpiperazin-1-yl)phenyl)-1,2-dimethyl-1H-benzo[d]imidazol-4-amine, TFA] | 1560 nM |
| Cc1nc2c(NC3CCS(=O)(=O)CC3)cc(-c3ccc(N4CCN(C(C)C)CC4)cc3)cc2n1C [Example 9, 4-((6-(4-(4-isopropylpiperazin-1-yl)phenyl)-1,2-dimethyl-1H-benzo[d]imidazol-4-yl)amino)tetrahydro-2H-thiopyran 1,1-dioxide] | 1120 nM |
| Cc1nc2c(NCCc3ccc(S(C)(=O)=O)cc3)cc(-c3ccc(N4CCN(C(C)C)CC4)cc3)cc2n1C [Example 10, 6-(4-(4-isopropylpiperazin-1-yl)phenyl)-1,2-dimethyl-N-(4-(methylsulfonyl)phenethyl)-1H-benzo[d]imidazol-4-amine] | 813 nM |
| Cc1nc2c(NCc3ccc(S(C)(=O)=O)cc3)cc(-c3ccc(N4CCN(C(C)C)CC4)cc3)cc2n1C [Example 11, 6-(4-(4-isopropylpiperazin-1-yl)phenyl)-1,2-dimethyl-N-(4-(methylsulfonyl)benzyl)-1H-benzo[d]imidazol-4-amine] | 918 nM |
| Cc1nc2c(NCc3cccc(S(C)(=O)=O)c3)cc(-c3ccc(N4CCN(C(C)C)CC4)cc3)cc2n1C [Example 12, 6-(4-(4-isopropylpiperazin-1-yl)phenyl)-1,2-dimethyl-N-(3-(methylsulfonyl)benzyl)-1H-benzo[d]imidazol-4-amine] | 971 nM |
| Cc1nc2c(NC3CCN(S(C)(=O)=O)CC3)cc(-c3ccc(N4CCN(C(C)C)CC4)cc3)cc2n1C [Example 13, 6-(4-(4-isopropylpiperazin-1-yl)phenyl)-1,2-dimethyl-N-(1-(methylsulfonyl)piperidin-4-yl)-1H-benzo[d]imidazol-4-amine] | 1220 nM |
| Cc1nc2c(NCc3ccc(CN4CCOCC4)cc3)cc(-c3ccc(N4CCN(C(C)C)CC4)cc3)cc2n1C [Example 14, 6-(4-(4-isopropylpiperazin-1-yl)phenyl)-1,2-dimethyl-N-(4-(morpholinomethyl)benzyl)-1H-benzo[d]imidazol-4-amine] | 31 nM |
| Cc1ccc(Nc2cc(-c3ccc(N4CCN(C(C)C)CC4)cc3)cc3c2nc(C)n3C)cn1 [Example 15, 6-(4-(4-isopropylpiperazin-1-yl)phenyl)-1,2-dimethyl-N-(6-methylpyridin-3-yl)-1H-benzo[d]imidazol-4-amine] | 526 nM |
| Cc1nc2c(Nc3ccc(N4CCOCC4)cn3)cc(-c3ccc(N4CCN(C(C)C)CC4)cc3)cc2n1C [Example 16, 6-(4-(4-isopropylpiperazin-1-yl)phenyl)-1,2-dimethyl-N-(5-morpholinopyridin-2-yl)-1H-benzo[d]imidazol-4-amine] | 207 nM |

| Compound | IC50 |
| --- | --- |
| Cc1nc2c(Nc3ccc(N4CCOCC4)nn3)cc(-c3ccc(N4CCN(C(C)C)CC4)cc3)cc2n1C [Example 17, 6-(4-(4-isopropylpiperazin-1-yl)phenyl)-1,2-dimethyl-N-(6-morpholinopyridazin-3-yl)-1H-benzo[d]imidazol-4-amine, TFA] | 137 nM |
| Cc1nc2c(Nc3ccc(N4CCOCC4)nc3)cc(-c3ccc(N4CCN(C(C)C)CC4)cc3)cc2n1C [Example 18, 6-(4-(4-isopropylpiperazin-1-yl)phenyl)-1,2-dimethyl-N-(6-morpholinopyridin-3-yl)-1H-benzo[d]imidazol-4-amine] | 728 nM |
| Cc1cc(Nc2cc(-c3ccc(N4CCN(C(C)C)CC4)cc3)cc3c2nc(C)n3C)cnc1C [Example 19, N-(5,6-dimethylpyridin-3-yl)-6-(4-(4-isopropylpiperazin-1-yl)phenyl)-1,2-dimethyl-1H-benzo[d]imidazol-4-amine] | 452 nM |
| Cc1nc2c(Nc3cnccn3)cc(-c3ccc(N4CCN(C(C)C)CC4)cc3)cc2n1C [Example 20, 6-(4-(4-isopropylpiperazin-1-yl)phenyl)-1,2-dimethyl-N-(pyrazin-2-yl)-1H-benzo[d]imidazol-4-amine] | 1270 nM |
| Cc1nc2c(Nc3ncccn3)cc(-c3ccc(N4CCN(C(C)C)CC4)cc3)cc2n1C [Example 21, 6-(4-(4-isopropylpiperazin-1-yl)phenyl)-1,2-dimethyl-N-(pyrimidin-2-yl)-1H-benzo[d]imidazol-4-amine] | 1640 nM |
| Cc1ccc(Nc2cc(-c3ccc(N4CCN(C(C)C)CC4)cc3)cc3c2nc(C)n3C)nc1 [Example 22, 6-(4-(4-isopropylpiperazin-1-yl)phenyl)-1,2-dimethyl-N-(5-methylpyridin-2-yl)-1H-benzo[d]imidazol-4-amine] | 762 nM |
| COc1ccnc(Nc2cc(-c3ccc(N4CCN(C(C)C)CC4)cc3)cc3c2nc(C)n3C)c1 [Example 23, 6-(4-(4-isopropylpiperazin-1-yl)phenyl)-N-(4-methoxypyridin-2-yl)-1,2-dimethyl-1H-benzo[d]imidazol-4-amine, TFA] | 370 nM |
| Cc1ccc(Nc2cc(-c3ccc(N4CCN(C(C)C)CC4)cc3)cc3c2nc(C)n3C)nn1 [Example 24, 6-(4-(4-isopropylpiperazin-1-yl)phenyl)-1,2-dimethyl-N-(6-methylpyridazin-3-yl)-1H-benzo[d]imidazol-4-amine] | 600 nM |
| CC(C)c1nc2c(NCCN3CCOCC3)cc(-c3ccc(N4CCN(C(C)C)CC4)cc3)cc2n1C [Example 25, 2-isopropyl-6-(4-(4-isopropylpiperazin-1-yl)phenyl)-1-methyl-N-(2-morpholinoethyl)-1H-benzo[d]imidazol-4-amine, 2 TFA] | 530 nM |
| Cc1cc(C)nc(Nc2cc(-c3ccc(N4CCN(C(C)C)CC4)cc3)cc3c2nc(C(C)C)n3C)c1 [Example 26, N-(4,6-dimethylpyridin-2-yl)-2-isopropyl-6-(4-(4-isopropylpiperazin-1-yl)phenyl)-1-methyl-1H-benzo[d]imidazol-4-amine] | 578 nM |
| Cc1cc(C)nc(Nc2cc(-c3ccc(N4CCN(C(C)C)CC4)cc3)cc3c2nc(C2CCN(S(C)(=O)=O)CC2)n3C)c1 [Example 27, N-(4,6-dimethylpyridin-2-yl)-6-(4-(4-isopropylpiperazin-1-yl)phenyl)-1-methyl-2-(1-(methylsulfonyl)piperidin-4-yl)-1H-benzo[d]imidazol-4-amine] | 284 nM |
| CC(C)N1CCN(c2ccc(-c3cc(NCCN4CCN(S(C)(=O)=O)CC4)c4nc(-c5ccc(S(C)(=O)=O)cc5)n(C)c4c3)cc2)CC1 [Example 28, 6-(4-(4-isopropylpiperazin-1-yl)phenyl)-1-methyl-2-(4-(methylsulfonyl)phenyl)-N-(2-(4-(methylsulfonyl)piperazin-1-yl)ethyl)-1H-benzo[d]imidazol-4-amine, 2 TFA] | 807 nM |
| Cc1cc(C)nc(Nc2cc(-c3ccc(N4CCN(C(C)C)CC4)cc3)cc3c2nc(-c2ccc(S(C)(=O)=O)cc2)n3C)c1 [Example 29, N-(4,6-dimethylpyridin-2-yl)-6-(4-(4-isopropylpiperazin-1-yl)phenyl)-1-methyl-2-(4-(methylsulfonyl)phenyl)-1H-benzo[d]imidazol-4-amine] | 340 nM |
| CC(C)N1CCN(c2ccc(-c3cc(NCCN4CCOCC4)c4nc(C5CCN(S(C)(=O)=O)CC5)n(C)c4c3)cc2)CC1 [Example 30, 6-(4-(4-isopropylpiperazin-1-yl)phenyl)-1-methyl-2-(1-(methylsulfonyl)piperidin-4-yl)-N-(2-morpholinoethyl)-1H-benzo[d]imidazol-4-amine] | 374 nM |
| CC(C)N1CCN(c2ccc(-c3cc(NCCN4CCOCC4)c4nc(C5CC5)n(C)c4c3)cc2)CC1 [Example 31, 2-cyclopropyl-6-(4-(4-isopropylpiperazin-1-yl)phenyl)-1-methyl-N-(2-morpholinoethyl)-1H-benzo[d]imidazol-4-amine, 2 TFA] | 302 nM |
